Drawing on a melting point compilation (Tetko et al.; mined from patent text by program, amines drawn as free bases though some values may be those of a salt), this text covers melting point for 84 compounds.

As a reminder, the melting point is the temperature, or range, at which the solid turns liquid.

For the compound `COc1cc(NC2=C(Cl)C(=O)c3ccccc3C2=O)ccc1S(=O)(=O)Nc1ccc(C)cc1`, the melting point was 186 to 189 °C.

The compound `O=S1(=O)N=CN(C2CCCCCCC2)c2ccc(Cl)cc21` returned a melting point of 235 to 237 °C.

Turning to `O=C(O)CC(NC(=O)OCC1c2ccccc2-c2ccccc21)C(F)(F)F` (centres undefined), the melting point lay in the range of 187 to 189 °C.

As to `COc1ccc2c(c1)C(c1ccccc1)N(S(C)(=O)=O)N=C2Cc1c(Cl)cncc1Cl` (centres undefined), the melting point was in the range of 223 to 224 °C.

For `CCN(CC)Cc1nc2sc3c(c2c(-c2ccc(OC)c(OC)c2)c1Cl)CCN(Cc1ccccc1)C3`, the melting point lay within 150 to 151 °C.

`Nc1nnc(-c2ccccc2Nc2cccc(C(F)(F)F)c2)s1` registered a melting point of 122 to 123 °C.

Compound `CC(C)(C)n1ncc(SCc2ccc(Oc3ccc(C(F)(F)F)cc3)cc2)c(Cl)c1=O` yielded a melting point of 152 to 156 °C.

As for `O=c1nc(-c2cccc(CSc3ccncc3)n2)sc2ccccc12`, the melting point is 182 °C.

The compound `CN1CC(=O)N(c2cc(Cl)nc(Cl)c2)C1=O` gave a melting point of 134 °C.

Consider `CC(C)(C)OC(=O)C(C1NC(C(=O)OCc2ccccc2)C2(CCSCC2)S1)N1C(=O)c2ccccc2C1=O` (centres undefined), for which the melting point fell in the range of 197 to 198 °C.

Turning to `O=C(Oc1ccc([N+](=O)[O-])cc1)c1cnc2cc(I)ccc2n1`, the melting point was 228 to 230 °C.

For the compound `O=C(CN1C(=O)C2(COc3cc(F)c(F)cc32)c2ccccc21)Nc1ccccc1F` (centres undefined), the melting point was in the range of 97 to 100 °C.

Take `CC(c1ccccc1N1CCCCC1)C(C(N)=O)c1ccc(C(=O)N(C)C)cc1` (centres undefined): the melting point lay within 148 to 150 °C.

Regarding `COC(=O)CC1c2cc([N+](=O)[O-])ccc2N(C(C)=O)C1C` (centres undefined), the melting point was found to be 106 °C.

Turning to `COC(=O)c1cccc(C(=O)Nc2cccc3cc(Br)cnc23)c1`, the melting point was 157 °C.

For `Cc1ccccc1C(=O)Nc1ccc(Cl)c(C(=O)OC(C)C)c1`, the melting point lay in the range of 137 to 138 °C.

Take `NCC1Cc2cc(Cl)cc(-c3ccc(F)c(F)c3)c2O1` (centres undefined): the melting point is greater than 250 °C.

With `COC(=O)c1ccc(C2CC(=O)NC2(CO)CO)c([N+](=O)[O-])c1` (centres undefined), the melting point lay in the range of 144 to 145 °C.

`COc1ccc(C2=NN(C(C)C)C(=O)[C@H]3CCCC[C@@H]23)cc1OC` (relative stereo) came in with a melting point of 79 to 81 °C.

Turning to `CCC(OC)C1(OC)OC12CO2` (centres undefined), the melting point lay within 68 to 70 °C.

`CCOC(=O)CN(NC(=O)OC(C)(C)C)C(=O)OCc1ccccc1` had a melting point of 117 to 119 °C.

In turn, `CCOC(=O)c1ccc2nccc(Cl)c2c1` displayed a melting point of 84 to 85 °C.

`CCOC(=O)c1cnn(-c2cc(Cl)cc(Cl)c2)c1SC`: the melting point lay in the range of 70 to 72 °C.

Regarding `COc1ccc2c(CCN3CCCCC3=O)c[nH]c2c1`, the melting point worked out at 146 °C.

In the case of `CNC(=O)c1ccc(C2C(C(=O)c3ccc(C)cc3)=C(O)C(=O)N2c2ncc(S(=O)(=O)c3ccc([N+](=O)[O-])cc3)s2)cc1` (centres undefined), the melting point was 195 to 197 °C.

Turning to `N#Cc1cccc2c1CN(C1CCC(=O)NC1=O)C2=O` (centres undefined), the melting point is 312 to 314 °C.

`CCOC(=O)CC(CC(=O)OCC)N1CCC(Nc2ncc3ncnc(Nc4cccc(Br)c4)c3n2)CC1`: the melting point came to 132 °C.

Compound `Cc1cc(C)c2cccc(OCc3c(Cl)ccc(S(=O)(=O)N4CCC[C@H]4C(=O)NCCCNC(=O)Cc4ccc(C=NN)cc4)c3Cl)c2n1` showed a melting point of 184 to 188 °C.

Compound `COc1ccc(NC2C=CC3=Nc4ccccc4SC3=C2)cc1` (centres undefined) yielded a melting point of 135 to 136 °C.

Take `COc1cc(Nc2c(C#N)cnc3cc(/C=C/CCN4CCOCC4)c(OC)cc23)c(Cl)cc1Cl`: the melting point lay in the range of 141 to 143 °C.

In the case of `CC[C@H](NC(=O)c1cc(F)ccc1NS(=O)(=O)c1cccc2cccnc12)c1ccccc1`, the melting point was found to be 163 °C.

Turning to `O=C1CCC(N2Cc3c(OCc4ccc(CN5CCN(CC6CC6)CC5)cc4)cccc3C2=O)C(=O)N1` (centres undefined), the melting point was in the range of 176 to 178 °C.

As to `CCCCc1nn(-c2cc(N)ccc2Cl)c(C(=O)OCC)c1Cc1ccc(-c2ccccc2S(=O)(=O)NC(=O)c2ccccc2Cl)cc1`, the melting point is greater than 75 °C.

The compound `CN(C)c1ccc(-c2cc(F)c(F)cc2-c2ccc(S(C)(=O)=O)cc2)cc1Cl` displayed a melting point of 129 to 130 °C.

For the compound `CS(=O)(=O)c1ccc(-c2cccn2-c2ccc(Cl)c(Cl)c2)cc1`, the melting point was in the range of 139 to 142 °C.

The compound `O=C(NC1CC=CCC1)NS(=O)(=O)c1ccc2c(c1)CCN(C(=O)N1CCCC1)CC2` (centres undefined) returned a melting point of 211 to 212 °C.

Consider `Cc1ccc(S(=O)(=O)NCc2nc(C(C)C)c(Sc3cc(Cl)cc(Cl)c3)n2C)cc1`, for which the melting point lay in the range of 85 to 87 °C.

In turn, `COc1cc(C(=O)NC=NC(=O)ON(c2ccc(C)c(NC(=O)c3ccc(C(=O)c4ccccc4)cc3)c2)C(C)(C)C)cc(OC)c1OC` gave a melting point of 96 °C.

The compound `CC(=O)OC1CSC(Oc2cnccc2-c2ccc(C(F)(F)F)cc2)C(OC(C)=O)C1OC(C)=O` (centres undefined) gave a melting point of 168 °C.

As for `Cc1c(F)c([N+](=O)[O-])cc2c(=O)c(C(=O)O)cn(-c3cc(N)c(F)cc3F)c12`, the melting point was 250 to 252 °C.

For the compound `Cc1cccc2cc3c(=O)n([C@@H](C)c4ccccc4)cc(C(=O)O)c3nc12`, the melting point is 234 to 235 °C.

Compound `CCc1c(N)cccc1NC(=O)c1ccc(Br)cc1` returned a melting point of 169 to 170 °C.

The compound `CCOC(=O)c1cc2cc3[nH]c(=O)[nH]c3cc2[nH]1` came in with a melting point of 196 to 197 °C.

For the compound `Cc1nc(-c2ccc(C(=O)O)s2)no1`, the melting point is 218 to 220 °C.

Compound `CCCCN(CCCC)Cc1cc(C(C)(C)C)cc(C(C)(C)C)c1O` came in with a melting point of 33 to 35 °C.

Turning to `CCN(C(=O)Cn1c(=O)n(C)c2nc(-c3ccccc3)ncc21)c1ccc(O)cc1`, the melting point is 254 to 256 °C.

On to `CS(=O)(=O)c1ccc(-c2cnn(CC=Cc3ccccc3)c(=O)c2-c2ccc(F)cc2)cc1`, for which the melting point was in the range of 165 to 167 °C.

`COc1c(Cl)ccc(-c2nc(C(=O)OC(C)C)cc(Cl)c2Cl)c1F`: the melting point is 124 to 128 °C.

Compound `CC(=O)n1cc(C2=CCN(CCCN3c4cccc5cccc(c45)S3(=O)=O)CC2)c2ccccc21` yielded a melting point of 163 °C.

`Cn1nc(-c2cc(C(=O)O)c(Cl)cc2Cl)c(Cl)c1OC(F)F` returned a melting point of 159 to 160 °C.

For `CCCCc1cnc(-c2ccc(C#N)cc2)nc1`, the melting point is 60.9 to 61.8 °C.

`CCCCN1CCC(n2c(=O)[nH]c3ccc(Br)cc32)CC1` came in with a melting point of 179 to 181 °C.

Compound `COc1ccc(S(=O)(=O)C2(CCCCCCCCCC#Cc3ccc(Cl)cc3)SC(=O)NC2=O)cc1` (centres undefined) showed a melting point of 114 to 121 °C.

As for `O=C(O)Cc1cc(C(=O)c2ccc3cc(-c4ccccc4)[nH]c3c2)sc1-c1ccccc1`, the melting point was in the range of 238 to 240 °C.

In turn, `CCOC(=O)c1csc(Nc2ccccc2)n1` showed a melting point of 140 to 142 °C.

For `COc1ccc(S(=O)(=O)N2C(=O)C(O[Si](C)(C)C)(c3ccccc3OC)c3cc(Cl)ccc32)c(OC)c1` (centres undefined), the melting point was 157 to 158 °C.

As to `CC1CCCCN1C(=O)C1Cc2ccccc2N1c1ccc(=O)n(C)n1` (centres undefined), the melting point fell in the range of 96 to 98 °C.

`COC(=O)c1sc2c(c1O)CSC2` had a melting point of 133 to 137 °C.

`CCOC(=O)C(Oc1ccccc1)c1ccccc1` (centres undefined): the melting point turned out to be 45 °C.

For the compound `Cc1cc(C)cc(N(CCCC(=O)O)Cc2ccc3nc(NCCCN4CCOCC4)n(Cc4nc(C)ccc4O)c3c2)c1`, the melting point worked out at 121 °C.

Consider `COc1ncccc1-c1nc2c(N[C@H]3[C@@H](C(N)=O)[C@@H]4C=C[C@H]3C4)c(Br)cnc2[nH]1`, for which the melting point came to 201 °C.

For the compound `CCC(CC)Oc1cc(C)nc(Oc2c(C)cc(C)cc2C)c1[N+](=O)[O-]`, the melting point was in the range of 106 to 109 °C.

In the case of `CCCCc1n[nH]c(C(=O)O)c1Cc1ccc(-c2ccccc2-c2nc(=O)o[nH]2)cc1`, the melting point fell in the range of 213 to 214 °C.

Turning to `O=C(c1ccccc1)c1ccc(N2CCCC2=O)cc1`, the melting point is 156 to 158 °C.

`C=C=CC1(NC(=O)c2ccccc2)CCCNC1=O` (centres undefined) returned a melting point of 203 to 204 °C.

`CCCc1c(OCCCCCCc2cc(C)c(O)c(O)c2C)ccc(C(=O)OCC)c1O` showed a melting point of 61 to 64 °C.

In turn, `CC(C)c1nn(-c2ccc(C(F)(F)F)cn2)cc1CCCCOc1cc(CCC(=O)O)n(C)n1` displayed a melting point of 113 to 114 °C.

`COc1cccc(-c2nc3n(n2)Cc2cc(OC)ccc2-3)c1` gave a melting point of 166 to 167 °C.

`CN1CCN(C(=O)CCC(=O)c2ccc3[nH]c4ncc(Cl)cc4c3c2)CC1`: the melting point worked out at 233 °C.

`Cc1nn(Cc2ccc(OCc3nc(-c4ccccc4)oc3C)cc2)c(C)c1CCC(=O)O` yielded a melting point of 170 to 171 °C.

Turning to `O=Cc1ccc(-c2ccc(Cl)cc2)cc1`, the melting point lay within 108 to 112 °C.

`Cc1ccc(-c2cc(-c3ccccc3)n[nH]2)cc1` had a melting point of 175 °C.

Consider `C=CC(=O)OCCSc1ccc2sc3ccccc3c(=O)c2c1`, for which the melting point was in the range of 68 to 71 °C.

In the case of `O=C1NC(=O)N(CCc2ccc(Cl)cc2)C1O` (centres undefined), the melting point lay within 151 to 152 °C.

`O=C(CC1(c2ccc(OCc3ccc4ccccc4n3)cc2)CCCC1)NS(=O)(=O)Cc1ccccc1` registered a melting point of 171 °C.

Turning to `CCCCc1cc(C#N)sc1-c1ccc2c(c1)C(C)(C)OC(=O)N2`, the melting point fell in the range of 167 to 168 °C.

For `CC(CC(=O)c1ccccc1)C(=O)N1CCC[C@H]1C(=O)O` (some centres undefined), the melting point lay in the range of 218 to 220 °C.

Consider `O=C(c1ccccc1)N1CCC(Nc2ccccc2Oc2ccc(Cl)cc2Cl)CC1`, for which the melting point fell in the range of 55 to 58 °C.

On to `Cc1cc(C=O)ccc1C(=O)O`, for which the melting point was 196 to 198 °C.

With `CC(=O)Nc1nc(-c2ccc(O)cc2O)cs1`, the melting point amounted to 264 °C.

Compound `CNc1nc(-c2cccc(-c3cncc(S(C)=O)c3)c2)c2cc(OC)c(OC)cc2n1` (centres undefined) yielded a melting point of 208 to 210 °C.

Take `[N-]=[N+]=NCC1CN(c2cc(F)c(-c3cccnc3)c(F)c2)C(=O)O1` (centres undefined): the melting point is 97 to 98 °C.

`O=c1ccc2c(-n3cnc(CO)c3)nccc2[nH]1` came in with a melting point of 259 to 261 °C.

The compound `N#Cc1ccc(Cl)c(C=NO)c1` displayed a melting point of 191 to 193 °C.
